Laboratory results from US9409915B2, “Substituted aza-bicyclic imidazole derivatives useful as TRPM8 receptor modulators” (Janssen Pharmaceutica NV, priority 2010, dated 2016).
pIC50: −log10 of the molar value. Where a name gives a salt, the structure may show the parent alone. Read-outs that look alike come from different tables or passages of the source.

Target: canine TRPM8 (Canis lupus familiaris, UniProt Q1A7N1)
Assay: In vitro canine TRPM8 functional assay (Ca2+-sensitive fluorescent dye, icilin activation)
Assay type: cell-based
Protocol: The functional activity of representative compounds of the formula (I) of the present invention was quantified by measuring changes in intracellular calcium concentration using a Ca^2+-sensitive fluorescent dye. The changes in fluorescent signal were monitored by a fluorescence plate reader, either a FLIPR™ (Molecular Devices) or FDSS (Hamamatsu).
HEK293 cells stably expressing canine TRPM8 were routinely grown as monolayers in Dulbecco's minimum essential medium supplemented with 10% FBS, 2 mM L-glutamine, 100 units/mL penicillin, 100 ug/mL streptomycin and 400 μg/mL G418. Cells were maintained in 5% CO2 at 37° C. At 24 hr prior to assay, cells were seeded in black wall, clear-base poly-D-lysine coated 384-well plates (BD Biosciences, NJ, USA) at a density of 5,000 cells per well in culture medium and grown overnight in 5% CO2 at 37° C. On assay day, growth media was removed, and cells were loaded with Calcium 3 Dye (Molecular Devices) for 35 min at 37° C., under 5% CO2 and then incubated for 25 min at room temperature and atmosphere. Subsequently, cells were tested for agonist-induced increases in intracellular Ca^2+ levels using FLIPR™ or FDSS. Cells were treated with compounds of the formula (I) at varying concentrations and intracellular Ca^2+ was measured for 5 min prior to the addition of icilin to each well to achieve a final concentration that produces an approximately 80% maximal response.
Maximal fluorescence intensity (FI) achieved upon addition of icilin was exported from the FLIPR™ or FDSS software and further analyzed using GraphPad Prism 3.02 (Graph Pad Software Inc., CA, U.S.A.). Basal FI was subtracted prior to normalizing data to percent of maximal response. Curves were generated using the average of quadruplicate wells for each data point using nonlinear regression of either sigmoidal dose response or sigmoidal dose response (variable slope). Finally, the EC50 and IC50 values were calculated with the best-fit curve determined by GraphPad Prism

[1] = 0.2 μM compound, HEK293 cells stably expressing canine TRPM8, icilin-induced Ca2+ response
[2] = HEK293 cells stably expressing canine TRPM8, icilin-induced Ca2+ response, eight-point concentration-response
[3] = HEK293, 0.2 μM compound, HEK293 cells stably expressing canine TRPM8, icilin-induced Ca2+ response
[4] = 0.2 μM compound, HEK293 cells stably expressing canine TRPM8, icilin-induced Ca2+ response, hydrochloride

Sequence of canine TRPM8 (Q1A7N1 1-1104): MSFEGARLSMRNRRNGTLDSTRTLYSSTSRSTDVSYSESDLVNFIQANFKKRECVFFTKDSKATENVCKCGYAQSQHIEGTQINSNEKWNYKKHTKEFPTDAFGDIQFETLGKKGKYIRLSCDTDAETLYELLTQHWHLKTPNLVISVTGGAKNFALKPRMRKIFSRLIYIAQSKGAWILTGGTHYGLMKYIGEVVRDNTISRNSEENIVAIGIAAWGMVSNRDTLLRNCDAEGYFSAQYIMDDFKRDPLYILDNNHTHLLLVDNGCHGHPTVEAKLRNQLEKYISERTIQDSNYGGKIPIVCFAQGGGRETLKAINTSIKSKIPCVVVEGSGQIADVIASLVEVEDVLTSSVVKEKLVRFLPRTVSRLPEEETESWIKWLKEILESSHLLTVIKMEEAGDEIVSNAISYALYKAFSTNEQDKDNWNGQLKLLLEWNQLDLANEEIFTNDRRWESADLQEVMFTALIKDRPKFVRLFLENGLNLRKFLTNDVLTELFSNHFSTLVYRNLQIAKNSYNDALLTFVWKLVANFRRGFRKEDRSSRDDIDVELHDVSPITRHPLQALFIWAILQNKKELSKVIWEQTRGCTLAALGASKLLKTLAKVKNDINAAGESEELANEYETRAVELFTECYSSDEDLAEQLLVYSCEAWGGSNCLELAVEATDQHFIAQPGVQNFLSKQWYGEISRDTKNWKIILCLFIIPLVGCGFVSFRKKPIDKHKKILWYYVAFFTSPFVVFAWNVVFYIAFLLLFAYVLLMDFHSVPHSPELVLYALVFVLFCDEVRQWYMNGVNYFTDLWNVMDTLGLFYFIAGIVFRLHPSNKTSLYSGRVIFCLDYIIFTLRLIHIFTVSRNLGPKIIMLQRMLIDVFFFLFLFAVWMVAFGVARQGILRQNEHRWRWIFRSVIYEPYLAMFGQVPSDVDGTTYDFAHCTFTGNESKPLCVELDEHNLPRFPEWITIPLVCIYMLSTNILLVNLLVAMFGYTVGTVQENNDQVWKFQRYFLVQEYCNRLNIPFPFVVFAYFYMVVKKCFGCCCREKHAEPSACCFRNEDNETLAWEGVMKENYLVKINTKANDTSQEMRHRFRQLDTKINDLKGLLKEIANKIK

SMILES | inhibition at 0.2 µM [1] [%] | pIC50 [2] | further results
Cn1nc(C(C)(C)C)c(Cl)c1-c1nc2nc(-c3ccccc3C(F)(F)F)ccc2[nH]1 [Compound 32, 2-(5-tert-Butyl-4-chloro-2-methyl-2H-pyrazol-3-yl)-5-(2-trifluoromethyl-phenyl)-1H-imidazo[4,5-b]pyridine hydrochloride] | 100 | 8.12 | 
Cn1nc(C(C)(C)C)c(Cl)c1-c1nc2nc(-c3ccccc3F)ccc2[nH]1 [Compound 33, 2-(5-tert-Butyl-4-chloro-2-methyl-2H-pyrazol-3-yl)-5-(2-fluoro-phenyl)-1H-imidazo[4,5-b]pyridine hydrochloride] | 98 | 7.40 | 
Cn1nc(C(C)(C)C)cc1-c1nc2nc(-c3ccccc3C(F)(F)F)ccc2[nH]1 [Compound 34, 2-(5-tert-Butyl-2-methyl-2H-pyrazol-3-yl)-5-(2-trifluoromethyl-phenyl)-1H-imidazo[4,5-b]pyridine] | 89 | 7.11 | 
Cc1nc(-c2ccccc2C(F)(F)F)nc2nc(-c3cc(C(C)(C)C)nn3C)[nH]c12 [Compound 35, 8-(5-tert-Butyl-2-methyl-2H-pyrazol-3-yl)-6-methyl-2-(2-trifluoromethyl-phenyl)-7H-purine trifluoroacetic acid salt] | 67 |  | 
Cn1nc(C(C)(C)C)cc1-c1nc2nc(-c3ccccc3F)ccc2[nH]1 [Compound 36, 2-(5-tert-Butyl-2-methyl-2H-pyrazol-3-yl)-5-(2-fluoro-phenyl)-1H-imidazo[4,5-b]pyridine] | 26 |  | 
Cn1nc(C(C)(C)C)cc1-c1nc2cc(-c3ccccc3OC(F)(F)F)ncc2[nH]1 [Compound 39, 2-(5-tert-Butyl-2-methyl-2H-pyrazol-3-yl)-6-(2-trifluoromethoxy-phenyl)-3H-imidazo[4,5-c]pyridine hydrochloride] |  | 7.12 | inhibition at 0.2 µM [3]: 69%
Cl.Cn1nc(C(C)(C)C)cc1-c1nc2cc(-c3ccccc3C(F)(F)F)ncc2[nH]1 [Compound 40, 2-(5-tert-Butyl-2-methyl-2H-pyrazol-3-yl)-6-(2-trifluoromethyl-phenyl)-3H-imidazo[4,5c]pyridine hydrochloride] |  |  | % Inh @ 0.2 μM: 86%; pIC50: 7.23
Cn1nc(C(C)(C)C)cc1-c1nc2cc(-c3ccccc3Cl)ncc2[nH]1 [Compound 41, 2-(5-tert-Butyl-2-methyl-2H-pyrazol-3-yl)-6-(2-chloro-phenyl)-3H-imidazo[4,5-c]pyridine hydrochloride] | 94 | 7.29 | 
Cn1nc(C(C)(C)C)cc1-c1nc2cc(-c3ccccc3F)ncc2[nH]1 [Compound 42, 2-(5-tert-Butyl-2-methyl-2H-pyrazol-3-yl)-6-(2-fluoro-phenyl)-3H-imidazo[4,5-c]pyridine hydrochloride] | 75 | 7.23 | 
Cl.Cn1nc(C(C)(C)C)c(Cl)c1-c1nc2cc(-c3ccccc3F)ncc2[nH]1 [Compound 43, 2-(5-tert-Butyl-4-chloro-2-methyl-2H-pyrazol-3-yl)-6-(2-fluoro-phenyl)-3H-imidazo[4,5-c]pyridine hydrochloride] |  | 7.66 | % Inh @ 0.2 μM [4]: 100%
Cn1nc(C(C)(C)C)c(C#N)c1-c1nc2cc(-c3ccccc3F)ncc2[nH]1 [Compound 44, 3-tert-Butyl-5-[6-(2-fluoro-phenyl)-3H-imidazo[4,5-c]pyridin-2-yl]-1-methyl-1H-pyrazole-4-carbonitrile hydrochloride] | 98 | 7.43 | 
Cn1nc(C(C)(C)C)c(C#N)c1-c1nc2cc(-c3ccccc3C(F)(F)F)ncc2[nH]1 [Compound 45, 3-tert-Butyl-1-methyl-5-[6-(2-trifluoromethyl-phenyl)-3H-imidazo[4,5-c]pyridin-2-yl]1H-pyrazole-4-carbonitrile hydrochloride] | 98 | 7.57 | 
Cn1nc(C(C)(C)C)c(Cl)c1-c1nc2cc(-c3ccccc3C(F)(F)F)ncc2[nH]1 [Compound 46, 2-(5-tert-Butyl-4-chloro-2-methyl-2H-pyrazol-3-yl)-6-(2-trifluoromethyl-phenyl)-3H-imidazo[4,5-c]pyridine hydrochloride] | 99 | 7.72 | 
Cn1nc(C(C)(C)C)c(C#N)c1-c1nc2cc(-c3ccccc3)ncc2[nH]1 [Compound 47, 3-tert-Butyl-1-methyl-5-(6-phenyl-3H-imidazo[4,5-c]pyridin-2-yl)-1H-pyrazole-4-carbonitrile hydrochloride] | 56 |  | 
Cl.Cn1nc(C(C)(C)C)c(Cl)c1-c1nc2cc(-c3ccccc3F)ncc2[nH]1 [Compound 48, 2-(5-tert-Butyl-4-chloro-2-methyl-2H-pyrazol-3-yl)-6-(2-fluoro-phenyl)-3H-imidazo[4,5-c]pyridine hydrochloride] |  |  | % Inh @ 0.2 μM [4]: 59%
Cn1nc(C(C)(C)C)c(Cl)c1-c1nc2cc(-c3ccccc3C(F)(F)F)nc(OCCN3CCOCC3)c2[nH]1 [Compound 49, 2-(5-tert-Butyl-4-chloro-2-methyl-2H-pyrazol-3-yl)-4-(2-morpholin-4-yl-ethoxy)-6-(2-trifluoromethyl-phenyl)-3H-imidazo[4,5-c]pyridine] | 100 | 8.19 | 
CN1CCN(CCOc2nc(-c3ccccc3C(F)(F)F)cc3nc(-c4c(Cl)c(C(C)(C)C)nn4C)[nH]c23)CC1 [Compound 50, 2-(5-tert-Butyl-4-chloro-2-methyl-2H-pyrazol-3-yl)-4-[2-(4-methyl-piperazin-1-yl)-ethoxy]-6-(2-trifluoromethyl-phenyl)-3H-imidazo[4,5-c]pyridine] | 91 | 7.25 | 
Cn1nc(C(C)(C)C)c(Cl)c1-c1nc2cc(-c3ccccc3Cl)nc(OCCN3CCCC3)c2[nH]1 [Compound 51, 2-(5-tert-Butyl-4-chloro-2-methyl-2H-pyrazol-3-yl)-6-(2-chloro-phenyl)-4-(2-pyrrolidin-1-yl-ethoxy)-3H-imidazo[4,5-c]pyridine] | 88 | 7.14 | 
Cn1nc(C(C)(C)C)c(Cl)c1-c1nc2cc(-c3ccccc3C(F)(F)F)nc(OCCN3CCCC3)c2[nH]1 [Compound 52, 2-(5-tert-Butyl-4-chloro-2-methyl-2H-pyrazol-3-yl)-4-(2-pyrrolidin-1-yl-ethoxy)-6-(2-trifluoromethyl-phenyl)-3H-imidazo[4,5-c]pyridine] |  | 7.10 | inhibition at 0.2 µM [3]: 80%
CN(C)CCOc1nc(-c2ccccc2C(F)(F)F)cc2nc(-c3c(Cl)c(C(C)(C)C)nn3C)[nH]c12 [Compound 53, {2-[2-(5-tert-Butyl-4-chloro-2-methyl-2H-pyrazol-3-yl)-6-(2-trifluoromethyl-phenyl)-3H-imidazo[4,5-c]pyridin-4-yloxy]-ethyl}-dimethyl-amine] | 99 | 7.57 | 
Cn1nc(C(C)(C)C)c(Cl)c1-c1nc2cc(-c3ccccc3Cl)nc(OCCN3CCOCC3)c2[nH]1 [Compound 54, 2-(5-tert-Butyl-4-chloro-2-methyl-2H-pyrazol-3-yl)-6-(2-chloro-phenyl)-4-(2-morpholin-4-yl-ethoxy)-3H-imidazo[4,5-c]pyridine] | 99 | 8.38 | 
CN1CCN(CCOc2nc(-c3ccccc3Cl)cc3nc(-c4c(Cl)c(C(C)(C)C)nn4C)[nH]c23)CC1 [Compound 55, 2-(5-tert-Butyl-4-chloro-2-methyl-2H-pyrazol-3-yl)-6-(2-chloro-phenyl)-4-[2-(4-methyl-piperazin-1-yl)-ethoxy]-3H-imidazo[4,5-c]pyridine] |  | 7.27 | inhibition at 0.2 µM [3]: 95%
CN(C)CCOc1nc(-c2ccccc2Cl)cc2nc(-c3c(Cl)c(C(C)(C)C)nn3C)[nH]c12 [Compound 56, {2-[2-(5-tert-Butyl-4-chloro-2-methyl-2H-pyrazol-3-yl)-6-(2-chloro-phenyl)-3H-imidazo[4,5-c]pyridin-4-yloxy]-ethyl}-dimethyl-amine] | 99 | 7.62 | 
Cn1nc(C(C)(C)C)c(Cl)c1-c1nc2cc(-c3ccccc3C(F)(F)F)nc(OCCO)c2[nH]1 [Compound 57, 2-[2-(5-tert-Butyl-4-chloro-2-methyl-2H-pyrazol-3-yl)-6-(2-trifluoromethyl-phenyl)-3H-imidazo[4,5-c]pyridin-4-yloxy]-ethanol] | 101 | 8.80 | 
Cn1nc(C(C)(C)C)c(Cl)c1-c1nc2cc(-c3ccccc3Cl)nc(OCCO)c2[nH]1 [Compound 58, 2-[2-(5-tert-Butyl-4-chloro-2-methyl-2H-pyrazol-3-yl)-6-(2-chloro-phenyl)-3H-imidazo[4,5-c]pyridin-4-yloxy]-ethanol] | 101 | 8.70 | 
